Structures can show the parent of a compound that is named as a salt.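 These data come from cells grown in 96-well plates and exposed to compound for 48 hours at five concentrations. At the GI50, growth is halved.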 The source made the active and inactive calls. No stated cut-off is given here; in the data, active = GI50 up to about 1.1 µM and inactive = higher.
Legend:
Experiment in all cases: growth of human tumour cells (NCI), 48 h
OVCAR-3 = system: OVCAR-3
M14 = system: M14
KM12 = system: KM12
RPMI-8226 = system: RPMI-8226
OVCAR-4 = system: OVCAR-4
EKVX = system: EKVX
786-0 = system: 786-0
SF-295 = system: SF-295
HCT-116 = system: HCT-116
UO-31 = system: UO-31
SK-MEL-28 = system: SK-MEL-28
SK-MEL-2 = system: SK-MEL-2
U-251 = system: U-251
LOX IMVI = system: LOX IMVI
MOLT-4 = system: MOLT-4
NCI-H522 = system: NCI-H522
HCT-15 = system: HCT-15

SMILES	GI50 (OVCAR-3)	GI50 (M14)	GI50 (KM12)	GI50 (RPMI-8226)	GI50 (OVCAR-4)	GI50 (EKVX)	GI50 (786-0)	GI50 (SF-295)	GI50 (HCT-116)	GI50 (UO-31)	GI50 (SK-MEL-28)	GI50 (SK-MEL-2)	GI50 (U-251)	GI50 (LOX IMVI)	GI50 (MOLT-4)	GI50 (NCI-H522)	GI50 (HCT-15)
Cc1ccc(NC(=O)CCC/C(CC(=O)c2ccc(Br)cc2)=N/NC(=O)CC#N)cc1	> 100 µM (inactive)	> 100 µM (inactive)	> 100 µM (inactive)	> 100 µM (inactive)	> 100 µM (inactive)	> 100 µM (inactive)	> 100 µM (inactive)	> 100 µM (inactive)	> 100 µM (inactive)	> 100 µM (inactive)	> 100 µM (inactive)	> 100 µM (inactive)	> 100 µM (inactive)	> 100 µM (inactive)	> 100 µM (inactive)	–	–
CCOC(=O)N1CCN(P(=O)(Nc2ccc3[nH]c(NC(=O)OC)nc3c2)Oc2ccccc2)CC1 (stereo unspecified)	50.7 µM (inactive)	> 100 µM (inactive)	> 100 µM (inactive)	81.8 µM (inactive)	> 100 µM (inactive)	–	> 100 µM (inactive)	–	> 100 µM (inactive)	> 100 µM (inactive)	> 100 µM (inactive)	> 100 µM (inactive)	> 100 µM (inactive)	> 100 µM (inactive)	> 100 µM (inactive)	37.5 µM (inactive)	> 100 µM
C[Si](C)(C)c1ccc(-c2sc(-c3ccc([Si](C)(C)C)s3)c3c2C[Si]2(C3)Cc3c(-c4ccc([Si](C)(C)C)s4)sc(-c4ccc([Si](C)(C)C)s4)c3C2)s1	> 100 µM (inactive)	> 100 µM (inactive)	> 100 µM (inactive)	> 100 µM (inactive)	> 100 µM (inactive)	–	> 100 µM (inactive)	> 100 µM (inactive)	> 100 µM (inactive)	> 100 µM (inactive)	> 100 µM (inactive)	–	> 100 µM (inactive)	> 100 µM (inactive)	> 100 µM (inactive)	> 100 µM (inactive)	> 100 µM
COc1cc2c(cc1OC)C(C(CO)CO)N(CC(O)CCl)CC2 (stereo unspecified)	> 100 µM (inactive)	> 100 µM (inactive)	> 100 µM (inactive)	> 100 µM (inactive)	> 100 µM (inactive)	> 100 µM (inactive)	> 100 µM (inactive)	> 100 µM (inactive)	–	86.5 µM (inactive)	> 100 µM (inactive)	> 100 µM (inactive)	> 100 µM (inactive)	> 100 µM (inactive)	> 100 µM (inactive)	> 100 µM (inactive)	> 100 µM
CC(NC(C)(C)C)C(=O)c1cccc(Cl)c1 (stereo unspecified) [BUPROPION HYDROCHLORIDE]	> 100 µM (inactive)	> 100 µM (inactive)	> 100 µM (inactive)	> 100 µM (inactive)	> 100 µM (inactive)	> 100 µM (inactive)	> 100 µM (inactive)	> 100 µM (inactive)	> 100 µM (inactive)	–	> 100 µM (inactive)	> 100 µM (inactive)	> 100 µM (inactive)	> 100 µM (inactive)	> 100 µM (inactive)	> 100 µM (inactive)	–

Reference: ChEMBL document CHEMBL1201862, “PubChem BioAssay data set” (2004)
